Source: US20250049698A1, “BIOACTIVE SERUM FRACTIONS FROM FRESH ROSE FLOWERS AND METHODS FOR THEIR PREPARATION AND USES” (ISP INVESTMENTS LLC, priority 2021, published 2025)

Experiment: DPPH free radical scavenging assay
Type: biochemical
Conditions: positive control; dilution from 5% (w/v) stock solution
From the text: DPPH assay provides an easy and rapid way to evaluate potential antioxidants. A free radical is an atom or molecule that has one or more unpaired electrons. The evidence is that reactive species of oxygen (O2-, H2O2, and NO2+) play an important role in inflammation, neurodegenerative disorders, and cancer, etc. Antioxidants can react with the nitrogen centered radical DPPH (2,2-Diphenyl-1-Picrylhydrazyl) and convert it to the non-radical 2,2-Diphenyl-1-Picrylhydrazine. The changes in color (from deep violet to light yellow) were read at 517 nm after 60 min of reaction using a UV/VIS Spectrophotometer. DPPH free radical scavenging method offers the first approach for evaluating the antioxidant potential of a compound or extract. DPPH free radical scavenging activity was determined to assess antioxidant activities for test articles by following protocol. DPPH (Sigma-Aldrich, 300267, St. Louis, MO, USA) solution of 0.06 mM in absolute methanol was prepared. Test articles with different concentrations (20 μl) were mixed with 180 μl of DPPH solution to obtain a total of 200 μl per well in a 96-well plate. After 60 min incubation at room temperature in the dark, the absorbance was measured at 517 nm by using a microplate spectrophotometer Biotek Synergy 2 (Biotek Instruments Inc, Winooski, VT, USA). […] The ability to scavenge DPPH radicle was calculated as % inhibition. […]

In the case of `O=C1O[C@H]([C@@H](O)CO)C(O)=C1O` [L-(+)-ascorbic acid (Vitamin C), L-(+)-ascorbic acid], the “DPPH free radical scavenging IC50” value is reported as 0.01 % (v/v).
